Data from patent US20200345746A1, “Oxazine Derivative for Use in the Prevention of Alzheimer's Disease in at Risk Patents” (Novartis AG, priority 2016, published 2020).

Legend:
Aβ42 [1] = test: 3-month dose-ranging study: Aβ42 in CSF; format: in vivo, human; conditions: for Aβ42 % change from baseline, Mean (SD) / Aβ42 % change from baseline, Median: CSF, 3 months
From the text: This study is listed in ClinicalTrials.gov under the NCT02576639 Identifier code.
The primary purpose of this study was to expand on previous safety and tolerability data obtained over 2-week and 4-week duration in the first in human study and thereby allow initiation of future long-term efficacy trials in subjects at risk of AD. In addition, data relevant for Pharmacokinetic/Pharmacodynamic modeling was obtained in order to support dose selection decisions for future efficacy studies.
In the completed first-in-human and 3-month dose-ranging safety and tolerability clinical studies described in Examples 5 and 6, Aβ concentrations in CSF were obtained by means of lumbar punctures before the first dose (baseline) and respectively after 2 weeks and 3 months of multiple dosing. ApoE4 genotype also was obtained in the subjects who consented. The percent change from baseline in Aβ40 and Aβ42 concentrations was calculated in subjects who took the study treatment and had no major protocol deviation with potential impact on the evaluation of the pharmacodynamic effect. Tables 18 to 21 below provide summary statistics of the percent change from baseline by treatment group and ApoE genotype (E4 heterozygotes versus E4 non-carriers). Only one subject with CSF data was E4 homozygote (from the 3-month dose-ranging safety and tolerability study).

in vivo [2] = conditions: C57BL/6, mouse; for AUC(0-t): po, AUCblood (AUC0-24 h)
From the text: Blood samples were used to analyze whole-blood compound levels and were obtained either from tail-vein during the in-life part into EDTA tubes (CB300, Sarstedt, Germany) or from trunk blood at the day of necropsy into EDTA Eppendorf tubes (Milian S A, CatNoTOM-14, Fisher Scientific, Wohlen, Switzerland), or into serum tubes (CB300Z, Sarstedt, Nümbrecht, Germany).
Brain was removed immediately after decapitation, rinsed with saline and sectioned sagitally down the midline. The left half of the cerebellum was used to analyze compound level and was placed into a glass tube (Chromacol, 125×5-SV T051, Welwyn Garden City, United Kingdom), weighed and frozen in dry-ice, the left half of the forebrain (without olfactory bulb) was used for Aβ analysis, and was frozen on a metal plate on dry ice and placed into protein Lo-bind tube (003 0108.116, Eppendorf, Hamburg, Germany).
Ventral and dorsal skin were taken to analyze compound level, weighed and frozen on dry-ice.
Brain samples were mixed with 2 volumes of KH2PO4 buffer and homogenized using the Covaris® device. Skin samples were mixed with approx. 6-fold volumes of methanol/water and homogenized using a Precellys tube. Either 30 μL of blood, brain or skin homogenate were spiked with a structurally related internal standard and subsequently mixed with an at least 6-fold excess volume acetonitrile for protein precipitation. The supernatant was injected directly into the LC/MS/MS system for analysis.
For tissue exposure, only data at 4 and 24 h were available.

[3] = Drug-drug interaction study: PK of Compound 1 with the strong CYP3A4 inhibitor itraconazole; format: in vivo, human; conditions: healthy volunteers, with itraconazole 200 mg q.d. vs Compound 1 alone
Aβ42 [4] = test: Triton TX-100 soluble Aβ42 in APP23 mouse brain; format: in vivo; conditions: APP23 mice
Procedure: Frozen mouse forebrains were weighed and homogenized in 9 volumes (w/v) of ice-cold TBS-Complete (20 mM Tris-HCl pH 7.4, 137 mM NaCl, 1× Complete [Protease Inhibitor Cocktail Tablets: 1 836 145, Roche Diagnostics GmbH, Penzberg, Germany]) by sonication (90% duty cycle, output control 5, 40-55 pulses, [Sonifier 450, Branson]). After homogenization several 50 μl aliquots were prepared for analysis and were stored at −80° C.
Human Aβ40 and 42 in mice was determined with the Meso Scale Discovery (MSD) 96-well MULTI-ARRAY human/rodent (6E10) Aβ40/42 Assay (Meso Scale Discovery, Rockville, Md., USA). The assay was performed according to the manufacturer's instructions except for the calibration curve and the sample preparations. […]
The calibration curve was prepared in a corresponding dilution of 1% Blocker A solution spiked with synthetic Aβ1-40 peptide (1.56-100 pg/ml) except for non-transgenic mouse brain samples: In this case, the calibration curve was prepared in a correspondingly diluted APP knockout mouse forebrain spiked with synthetic Aβ1-40 peptide (1.56-100 pg/ml). […] The relative units for samples and standards were imported into SOFTmax PRO 4.0 for calculation of standard curves and quantification of samples. […]

in vivo [5] = conditions: APOE4-TR, mouse; for AUC(0-t): po
[6] = Drug-drug interaction study: PK of Compound 1 with the strong CYP3A4 inducer rifampicin; format: in vivo, human; conditions: healthy volunteers, with rifampicin 600 mg q.d. vs Compound 1 alone

C[C@@]1(c2nc(NC(=O)c3ncc(C(F)(F)F)cc3Cl)ccc2F)CO[C@@](C)(C(F)(F)F)C(N)=N1 [Compound 1, N-(6-((3R,6R)-5-amino-3,6-dimethyl-6-(trifluoromethyl)-3,6-dihydro-2H-1,4-oxazin-3-yl)-5-fluoropyridin-2-yl)-3-chloro-5-(trifluoromethyl)picolinamide]
Aβ42 % change from baseline, Mean (SD) (Aβ42 [1]; 2 mg, E4 heterozygotes): −23 (9) %
Aβ42 % change from baseline, Median (Aβ42 [1]; 2 mg, E4 heterozygotes): −23%
Aβ42 % change from baseline, Mean (SD) (Aβ42 [1]; 2 mg, E4 non-carriers): −24 (9) %
Aβ42 % change from baseline, Median (Aβ42 [1]; 2 mg, E4 non-carriers): −21%
Aβ42 % change from baseline, Mean (SD) (Aβ42 [1]; 10 mg, E4 heterozygotes): −66 (7) %
Aβ42 % change from baseline, Median (Aβ42 [1]; 10 mg, E4 heterozygotes): −63%
Aβ42 % change from baseline, Mean (SD) (Aβ42 [1]; 10 mg, E4 non-carriers): −65 (5) %
Aβ42 % change from baseline, Median (Aβ42 [1]; 10 mg, E4 non-carriers): −66%
Aβ42 % change from baseline, Mean (SD) (Aβ42 [1]; 35 mg, E4 heterozygotes): −83 (5) %
Aβ42 % change from baseline, Median (Aβ42 [1]; 35 mg, E4 heterozygotes): −85%
Aβ42 % change from baseline, Mean (SD) (Aβ42 [1]; 35 mg, E4 non-carriers): −81 (6) %
Aβ42 % change from baseline, Median (Aβ42 [1]; 35 mg, E4 non-carriers): −83%
Aβ42 % change from baseline, Mean (SD) (Aβ42 [1]; 85 mg, E4 heterozygotes): −88 (2) %
Aβ42 % change from baseline, Median (Aβ42 [1]; 85 mg, E4 heterozygotes): −88%
Aβ42 % change from baseline, Mean (SD) (Aβ42 [1]; 85 mg, E4 non-carriers): −90 (2) %
Aβ42 % change from baseline, Median (Aβ42 [1]; 85 mg, E4 non-carriers): −90%
Aβ42 in CSF percent change from baseline, Difference (90% CI) Cmpd 1-Placebo (Aβ42 [1]; month 3, 2 mg QD): −21.24 (−24.28, −18.21) %
Aβ42 in CSF percent change from baseline, LSmean (SE) (Aβ42 [1]; month 3, 2 mg QD): −24.00 (1.277) %
Aβ42 in CSF percent change from baseline, Difference (90% CI) Cmpd 1-Placebo (Aβ42 [1]; month 3, 10 mg QD): −61.39 (−64.47, −58.31) %
Aβ42 in CSF percent change from baseline, LSmean (SE) (Aβ42 [1]; month 3, 10 mg QD): −64.15 (1.308) %
Aβ42 in CSF percent change from baseline, Difference (90% CI) Cmpd 1-Placebo (Aβ42 [1]; month 3, 35 mg QD): −79.73 (−82.73, −76.73) %
Aβ42 in CSF percent change from baseline, LSmean (SE) (Aβ42 [1]; month 3, 35 mg QD): −82.49 (1.250) %
Aβ42 in CSF percent change from baseline, Difference (90% CI) Cmpd 1-Placebo (Aβ42 [1]; month 3, 85 mg QD): −86.62 (−89.76, −83.49) %
Aβ42 in CSF percent change from baseline, LSmean (SE) (Aβ42 [1]; month 3, 85 mg QD): −89.38 (1.348) %
Kp (in vivo [2]): 3.2
AUC(0-t) (in vivo [2]; 8 umol/kg): 3.43 µM·h
AUC(0-t) (in vivo [2]; 50 umol/kg): 28.9 µM·h
increase of mean AUC of Compound 1 [3]: 2-3 fold
increase of mean Cmax of Compound 1 [3]: 25%
Aβ42 change vs vehicle (Triton TX-100 soluble, brain) (Aβ42 [4]; 0.03 g/kg vs vehicle): −20.1%
Aβ42 change vs vehicle (Triton TX-100 soluble, brain) (Aβ42 [4]; 0.3 g/kg vs vehicle): −77.3%
exposure reduction 4h/24h (in vivo [5]): 2-5 fold
AUCbrain (AUC0-24 h) (in vivo [5]; 3 umol/kg): 8.67 µmol·h/kg
AUCbrain (AUC0-24 h) (in vivo [5]; 10 umol/kg): 15.83 µmol·h/kg
AUCbrain (AUC0-24 h) (in vivo [5]; 30 umol/kg): 49.82 µmol·h/kg
AUC(0-t) (in vivo [5]; 3 umol/kg): 1.56 µM·h
AUC(0-t) (in vivo [5]; 10 umol/kg): 4.86 µM·h
AUC(0-t) (in vivo [5]; 30 umol/kg): 14.9 µM·h
decrease of mean AUC of Compound 1 [6]: 5-6 fold
decrease of mean Cmax of Compound 1 [6]: 2.5 fold
